Assay results from US7582778B2, “Podophyllotoxin” (Universitatsklinikum Charite der Humboldt-Universitat zu, priority 2001, dated 2009).
Read-outs that look alike come from different tables or passages of the source.

Key:
MOVP-3 cells = assay: Cell cycle analysis (propidium iodide, FACS), MOVP-3; format: cell-based, human; details: 0.5 μM, up to 72 h
Experimental: (§1) Cells were harvested at indicated time points (n=3), fixed, stained with propidium iodide and analyzed by FACS as described in Materials and Methods. Per cent cells in pre G1 (apoptosic cells) were calculated from DNA histograms.
(§2) Cell cycle analysis: Distinct phases of the cell cycle were determined in a standard assay using propidium iodide. […] At indicated time points, cells were harvested and fixed in 4.5 ml ethanol (75%, −20° C.) for at least 12 h (4° C.). Cells were washed in PBS (pH 7.4) and resuspended in 250 μl PBS containing RNAse (0.3 mg/ml) and propidium iodide (50 μg/ml) and incubated in the dark (30 min, RT). The DNA histograms defining distinct phases of the cell cycle were subsequently determined in duplicates by FACS analysis and average results were expressed as per cent.

[1] = human serum, pH 7.3, 37° C.
[2] = for kobs: PBS buffer
Experimental: ProVP-16 I was incubated in THF/2% HCl and samples were periodically analyzed by HPLC at the indicated time points (A). Hydrolytic activation of ProVP-16 II was determined in phosphate buffered saline (PBS) a t the pH levels indicated (B). ProVP-16 I (3 mM) was incubated in PBS solutions and samples were periodically analyzed by HPLC. The percent conversion was calculated from areas under the curve determined by peak integration.

[3] = system: porcine liver carboxyl ester hydrolase
Molt-3 parental cells = assay: Cell cycle analysis (propidium iodide, FACS), Molt-3; format: cell-based, human; details: Molt-3 cells, 0.5 μM, up to 72 h
Experimental: as §1, §2

[4] = system: multidrug resistant MOVP-3 cells; assay: XTT cytotoxicity assay, multidrug resistant MOVP-3 subline; format: cell-based, human
Experimental: MDR-1 gene expression was determined by RT-PCR analysis on total RNA isolated from MOVP-3 and Molt-3 cells, respectively (6A). Expression of GAPDH was used as a control for the integrity of the cDNA. […] (6C) Cross-resistance of MOVP-3 cells against MDR-1 drugs (doxorubicin, melphalan, vinblastine and paclitaxel) was calculated from IC50 values (n=3) as described in 6B).
Cells: Tumor cell lines were grown in RPMI, 10% FCS (Nalm-6, Reh, Molt-3, Jurkat, HL-60, K562, HeLa, CEM, A2780, SW480) or DMEM, 10% FCS (NXS2, SK-N-SH, HT-29) in the presence of 100 IU/ml penicillin/streptomycin (P/S) and propagated under standard tissue culture conditions (5% CO2, 37° C.). All cell lines were obtained from ATCC, Rockville, Md. except NXS2 which was previously described (Lode H N, Xiang R, Varki N M, Dolman C S, Gillies S D, Reisfeld R A. Targeted interleukin-2 therapy for spontaneous neuroblastoma metastases to bone marrow. Journal of the National Cancer Institute. 1997; 89:1586-1594.) and VCR100, ADR5000 and A2780 which were kindly provided by James Beck, Greifswald, Germany (Beck J, Handgretinger R, Dopfer R, Klingebiel T, Niethammer D, Gekeler V. Expression of mdrl, mrp, topoisomerase II alpha/beta, and cyclin A in primary or relapsed states of acute lymphoblastic leukaemias. Br J Haematol. 1995; 89:356-363; Beck J F, Bohnet B, Brugger D, et al. Expression analysis of protein kinase C isozymes and multidrug resistance associated genes in ovarian cancer cells. Anticancer Res. 1998; 18:701-705.).

[5] = system: CHO Chinese hamster ovary; assay: XTT cytotoxicity assay, CHO; format: cell-based
Experimental: (§4) Cytotoxicity assay: Cytotoxicity was determined by the XTT tetrazolium/formazan assay as previously described (Scudiero D A, Shoemaker R H, Paull K D, et al. Evaluation of a soluble tetrazolium/formazan assay for cell growth and drug sensitivity in culture using human and other tumor cell lines. Cancer Res. 1988; 48:4827-4833.). Briefly, cells were seeded in 96 flat bottom well plates at a density of 10^4/well in 100 μl media and exposed to drug concentrations ranging from 10^−4 to 10^−12 M. At the indicated time points (6-72 hr), cell viability was assessed by adding 50 μl XTT-reagent (1 mg/ml in serum free RPMI) activated with 0.2% v/v PMS (1.53 mg/ml in PBS) incubated at 37° C. for 4 h. Plates were analyzed in a Thermomax (Molecular Devices) micro plate reader at 450 nm. OD values were plotted as a function of drug concentration and the curves were integrated using the softmax software to obtain the IC50 concentration values.

Water solubility = format: physicochemical; details: compared with ProVP-16 I
[6] = Experimental: The body weight was determined for each animal over time and calculated as per cent of total weight observed on day 0. An event as indicated by Kaplan Maier plots is defined by loss of body weight greater than 20%.
Body weights and survival were monitored over time.

MOVP-3 primary tumors = assay: Anti-tumor effect in a multidrug resistant T-cell leukemia xenograft model; format: in vivo, SCID mice
Experimental: The anti-tumor effect of ProVP-16 II therapy was determined in a multidrug resistant xenograft model (B,C). SCID mice (n=7) were injected s.c. with 5×10^6 MOVP-3 cells and primary tumors of 250 mm^3 average size were established 55 days after inoculation. […] Tumor growth was monitored by microcaliper measurements and tumor size was calculated as described in Materials and Methods (B). […] The body weight of treated animals was determined over time and calculated as per cent of body weight on day 57 (C).
Anti-tumor effect in a T-cell leukemia xenograft model: Primary tumors were induced by injection of 5×10^6 MOVP 3 cells in 100 μl PBS (pH 7.4) into the skin of the left lateral flank of each SCID mouse. Established primary tumors were palpable 55 days after injection. […] Each mouse received a total of 7 injections on days 55,57,59,69,71,87,90 after tumor cell inoculation. Primary tumor size was determined over time by micro caliper measurements and volumes were calculated according to ½×with^2×length. Body weight was determined on a standard digital scale.

SW480 colon carcinoma = details: SW480, vs VP-16
Experimental: (§3) The cytotoxic effect of ProVP-16 I and II was evaluated against a panel of cell lines by triplicate determinations of IC50 concentrations for both prodrugs against each cell line (A). […] Bars represent mean values ±SD.

Molt-3/MDR-1 cells = details: stable transfection with pMDR-IRESpuro
Experimental: Stable transfection of MDR-1: The MDR-1 cDNA was kindly provided in a pUC based plasmid by C. Baum, University of Hamburg. For mammalian expression, the MDR-1 cDNA was cloned into the bicistronic eukaryotic expression plasmid pIRESpuro using NotI and BamHI restriction sites. pMDR-IRESpuro was transfected into Molt-3 cells by electroporation (960 μF, 250V). Stable transfectants were selected with 300 ng/ml puromycin.
OD values were plotted as a function of drug concentration and the curves were integrated using the softmax software to obtain the IC50 concentration values.

[7] = system: Hamms human colon carcinoma cells; assay: XTT cytotoxicity assay, Hamms; format: cell-based
Experimental: as §4

Molt-3 T-cell leukemia = assay: XTT cytotoxicity assay, Molt-3
Experimental: as §3
At the time points indicated, cell viability was determined in triplicate by the XTT assay as described in Materials and Methods. […] Results were plotted as a semilogarithmic function of drug concentration.

[8] = system: NXS2 murine neuroblastoma; assay: XTT cytotoxicity assay, NXS2; format: cell-based
Experimental: as §3

## COc1cc(C2c3cc4c(cc3C(OC3OC5COC(C)OC5C(O)C3O)C3COC(=O)C23)OCO4)cc(OC)c1OC(=O)OCC(O)CO (stereo not shown) [ProVP-16 II]
MOVP-3 cells
  induction of apoptosis (pre-G1 peak): very effective in inducing a steady increase in the pre-G1 peak
[1]; listed as ProPV-16 II
  t1/2: 56.1 min
[1]; listed as Prodrug II
  t1/2: 56.07 min
[2]; pH 5.0-7.3, 37° C.
  kobs: no conversion
[2]; pH 8.0, 37° C.
  kobs: 3.201 ± 0.428 10^−3-min^−1
[2]; pH 8.8, 37° C.
  kobs: 7.142 ± 0.351 10^−3-min^−1
[2]; pH 10.5, 37° C.
  kobs: 100.01 ± 12.72 10^−3-min^−1
[2]; pH 7.4
  conversion rate: < 5%
[3]; pH 7.3
  kobs: 1.348 ± 0.081 10^−3-min^−1
[3]; porcine liver carboxyl ester hydrolase, pH 7.3, 37° C.
  t1/2: 514.1 min
Molt-3 parental cells
  induction of apoptosis (pre-G1 peak): Induction of apoptosis was also demonstrated
[4]
  resistance of MOVP-3 cells (IC50 MOVP-3÷IC50 Molt-3): no significant difference
[4]; MOVP-3 cells
  IC50: 20 nM
[5]
  response to proetoposides compared with etoposide: responded equally well
Water solubility
  water solubility: higher water solubility
[6]; 20 mg/kg i.p.
  survival / tolerability: well tolerated with no death
[6]; 60 mg/kg i.p.
  survival / tolerability: well tolerated with no death
[6]; defined by a decrease in body weight <20%
  maximum tolerated dose: 60 mg/kg
[6]; mouse, in vivo
  decrease of systemic toxicity by the prodrug design, factor: ≥ 3
[6]; vs VP-16
  increase in the maximum tolerated dose over the parental compound: greater than 3 fold
MOVP-3 primary tumors; 15 mg/kg i.p.
  anti-tumor response: dramatic reduction in primary tumor growth
  transient average weight loss: no measurable weight loss
MOVP-3 primary tumors; 45 mg/kg i.p.
  time the regression was stable: over 2 months
  transient weight loss: 6%
MOVP-3 primary tumors; 45 mg/kg i.p., 10 days after initiation of treatment
  animals with regression of established primary tumors: 7/7
SW480 colon carcinoma
  IC50 fold lower than parent compound: 1000 fold
Molt-3/MDR-1 cells
  sensitivity / resistance of Molt-3/MDR-1 cells: remained fully sensitive
[7]
  response to proetoposides compared with etoposide: responded equally well
Molt-3 T-cell leukemia; Molt-3, up to 12 h of incubation
  cytotoxic effects at early incubation: absence of cytotoxic effects
Molt-3 T-cell leukemia; Molt-3 cells, resistance experiment (FIG. 4B)
  IC50: 20 nM
[8]
  response to proetoposides compared with etoposide: responded equally well
